Four compounds from patent publication US5356882A, “Antiviral pyrimidine nucleosides” (University of Birmingham, priority 1989, dated 1994) can be followed below.

Each structure is given as a SMILES string.

Series [1] is described as follows: CCID50 (Table 1; method not described). Format: cell-based.
For series [2], the system named is HSV1. As to the kind of experiment: Anti-HSV Activity, plaque reduction assay in Vero cells (HSV-1 strain SC16). Type of series: cell-based, Herpes Simplex Virus type 1 (strain SC16). On the procedure:
(§1) Herpes Simplex Virus types 1 (HSV 1) and 2 (HSV2) were assayed in monolayers of Vero cells in multiwell trays. The virus strains used were SC16 and 186 for HSV-1 and HSV-2 respectively. Activity of compounds was determined in the plaque reduction assay, in which a cell monolayer was infected with a suspension of the appropirate HSV, and then overlaid with nutrient agarose in the form of a gel to ensure that there was no spread of virus throughout the culture. A range of concentrations of compound of known molarity was incorporated in the nutrient agarose overlay. Plaque numbers at each concentration were expressed as percentages of the control and a dose-response curve was drawn. From this curve the 50% inhibitory concentration (IC50) was estimated to be 0.66 μm for the compound of formula (I) in which X represents a 2-bromovinyl group.

Series [3] relates to HSV2. As to the kind of experiment: Anti-HSV Activity, plaque reduction assay in Vero cells (HSV-2 strain 186). Type of series: cell-based, Herpes Simplex Virus type 2 (strain 186). How it is done: as §1
Series [4] in a line: toxicity / therapeutic index (general statement). As to conditions: statement in words.
Series [5] has as its system VZV. In words: Anti-VZV Activity, plaque reduction assay in MRC-5 cells. Format: cell-based, varicella zoster virus (clinical isolates). As to conditions: Human alphaherpesvirus 3, MRC5, MRC-5 cells, clinical isolates. How it is done:
Clinical isolates of varicella zoster virus (VZV) were assayed in monolayers of MRC-5 cells. MRC-5 cells are derived from human embyonic lung tissue. A plaque reduction assay was used in which a suspension Of the virus stock was used to infect monolayers of the cells in multiwell trays. a range of concentrations of the compound under test of known molarity was added to the wells. Plaque numbers at each concnetration were expressed as percentages of the control and a dose response curve was constructed. From these curves the 50% inhibitory concentration of each drug was determined.
Background: Plaques are areas of infected cells; plaque reduction assays count them against a control.

As to `O=c1[nH]c(=O)n([C@H]2C[C@H](O)[C@@H](CO)S2)cc1/C=C/Br` [CH=CHBr, OH, E-5-(2-bromovinyl)-2'-deoxy-4'-thiouridine], the CC50 – broadly, the concentration giving 50% cytotoxicity – in series [1] was above 500000 nM. Turning to `Nc1nc(=O)n([C@H]2C[C@H](O)[C@@H](CO)S2)cc1/C=C/Br` [CH=CHBr, NH2, 2'-Deoxy-5-E-(2-bromovinyl)-4'-thiocytidine], the IC50 (in general, the point on the concentration scale where inhibition reaches its midpoint) in series [2] (Vero cells, strain SC16, plaque reduction) was around 2300 nM; in series [3] (Vero cells, strain 186, plaque reduction) it was above 10000 nM. With `Cc1cn([C@H]2C[C@H](O)[C@@H](CO)S2)c(=O)[nH]c1=O` [β-4'-thio-thymidine], the “activity against HSV1” value in series [2] (statement in words) is on record as “good activity”. In addition, the “activity against HSV2” value in series [3] (statement in words) was “good activity”. Also, the toxicity result in series [4] is on record as “toxic”. With `CCc1cn([C@H]2C[C@H](O)[C@@H](CO)S2)c(=O)[nH]c1=O` [CH2 CH3, OH, 2'-Deoxy-5-ethyl-4'thiouridine], the half-inhibitory concentration (IC50) in series [5] was 790 nM.
